Publication PMC8876244, “Effective Synthesis and Antifouling Activity of Dolastatin 16 Derivatives” (Marine Drugs, 2022)
In brackets after ≈: the same amount, converted by molar mass. Read-outs that look alike come from different tables or passages of the source. Starred links: 1 amine or outer side, 2 acyl side, 3 side chain; linkers in the order of their positions; H or OH if unused. Non-standard residues stand in square brackets, D forms with d. Residues, ends and D or L forms follow the SMILES beside them. *: point of attachment. X3 = CC(=O)Oc1ccc(C[C@@H](C)[C@H](N[*:1])C(=O)[*:2])cc1; X4 = CC(C)[C@@H](N[*:1])[C@@H](C)C(=O)[*:2]; X1 = CC(Cc1ccccc1)C(N[*:1])C(=O)[*:2]; X2 = CC(C)C(N[*:1])C(C)C(=O)[*:2]; X5 = C[C@H](OCc1ccccc1)C(=O)*; dNMeV = CN[C@@H](C(=O)O)C(C)C; dHiv = CC(C)[C@@H](O)C(=O)O; Hiv = CC(C)[C@H](O)C(=O)O; Lac = C[C@H](O)C(=O)O; OBn = c1ccc(CO*)cc1

Columns and labels:
[1] = system: cypris larvae of the barnacle Amphibalanus amphitrite; conditions: previous compounds and positive control, cited from earlier work; for EC50: read-out: EC50 (μM), antifouling activity
[2] = system: cypris larvae of the barnacle Amphibalanus amphitrite; conditions: previous compounds and positive control; cited from earlier work
[3] = system: cypris larvae of the barnacle Amphibalanus amphitrite; assay: Antifouling assay: inhibition of settlement of cypris larvae, 48 h exposure; type: in vivo; conditions: for EC50: Amphibalanus amphitrite, 48 h
Method: The antifouling activities of synthetic samples were evaluated as EC50 values against the cypris larvae of A. amphitrite by exposure of each compound for 48 h (Table 1, Figure 2). […] We next investigated the biological activity of the fragments.
(§1) Antifouling assay against larvae of the barnacle Amphibalanus amphitrite was conducted according to the previous literature. The adult barnacles, A. amphitrite, obtained from oyster farms in Lake Hamana and a pier of Shimizu bay, Shizuoka, were kept in an aquarium at 20 °C and were fed on Artemia salina nauplii. Broods were released as I–II stage nauplii upon immersion in seawater after drying overnight. The nauplii (1.0~3.0 indiv./mL) thus obtained were cultured in 2.0 L filtered (0.2 μm) natural seawater (diluted by DW: salinity 28) containing penicillin G (20 μg/mL) and streptomycin sulfate (30 μg/mL) at 25 °C and were fed on the diatom Chaetoceros gracillis at concentrations of 40 × 10^4 cells/mL. Larvae reached the cyprid stage in 5 days. The cyprids were collected, then stored at 4 °C until use (0-day-old).
(§2) The test compounds were dissolved in ethanol and aliquots of the solution (20 μL) were transferred to wells of a 24-well polystyrene culture plates and then air-dried for 3 h at room temperature and CuSO4 was used as positive compound. Four wells were used for each concentration (0.03, 0.1, 0.3, 1.0, 3.0, 10.0 μg/mL). To each well were added filtered ([…]) natural seawater (2.0 mL, salinity 28) and six 2-day-old cyprids. The plates were kept in the dark at 25 °C for 48 h. […] Three or four trials were carried out for each concentration. Antifouling activity (EC50) indicates the concentration reducing the larval settlement to 50% of the control (non-treatment) by Probit analysis. Toxicity of compounds were expressed as LC50 value, which indicates the concentration showing 50% mortality estimated by Probit analysis.

[4] = Antifouling assay: toxicity (mortality) to cypris larvae, 48 h exposure; conditions: Amphibalanus amphitrite (barnacle, cypris larvae), in vivo, 50% mortality of cyprids, highest concentration 10.0 μg/mL, read-out: LC50 (50% lethal concentration)
Method: as §1, §2

[5] = system: human cancer cell lines such as NCI-H460, KM20L2 and SF-295; conditions: cited from earlier work
[6] = system: larval settlement and metamorphosis of the barnacle Amphibalanus amphitrite; parameters: method as in PMID 20658384; conditions: cited from earlier work
[7] = system: barnacle Amphibalanus amphitrite; parameters: method as in PMID 20658384; conditions: cited from earlier work
[8] = larval settlement reduced to 50% of control, Probit analysis, read-out: EC50 (50% effective concentration), antifouling activity
[9] = larval settlement, read-out: EC50 (μM), antifouling activity

**Q.** Which results are given for `CC(C)[C@H](OC(=O)[C@@H]1CCCN1C(=O)[C@H](C)OCc1ccccc1)C(=O)N(C)[C@@H](C(=O)N1CCC[C@H]1C(=O)O)C(C)C` [Compound 2] (X5-P[Hiv][dNMeV]P-OH)?
**A.** EC50 (50% effective concentration), antifouling activity [1]: >10 µg/mL; EC50 [1]: > 17 µM; LC50 (50% lethal concentration) [2]: >10 µg/mL

**Q.** What does the source list for `CC(C)[C@H](OC(=O)[C@@H]1CCCN1C(=O)[C@H](C)OCc1ccccc1)C(=O)N(C)[C@@H](C(=O)N1CCC[C@H]1C(=O)OCc1ccccc1)C(C)C` [Compound 25, BnO-Lac-Pro-O-Hiv-D-MeVal-Pro-OBn] (X5-P[Hiv][dNMeV]P-OBn)?
**A.** EC50 [3, 8]: < 1 µg/mL; EC50 [3, 9]: 1.32 µM; LC50 [4]: > 10 µg/mL

**Q.** Which results are given for `CC(=O)Oc1ccc(C[C@@H](C)[C@@H]2NC(=O)[C@@H]3CCCN3C(=O)[C@@H](C(C)C)N(C)C(=O)[C@H](C(C)C)OC(=O)[C@@H]3CCCN3C(=O)[C@H](C)OC(=O)[C@H](C)[C@@H](C(C)C)NC(=O)[C@@H]3CCCN3C2=O)cc1` [Compound 24, Dolastatin 16 Acetate] (cyclo([Hiv][dNMeV]P[X3]P[X4][Lac]P))?
**A.** EC50 ([3]; read-out: EC50 (50% effective concentration), antifouling activity): 1.74 µg/mL; EC50 ([3]; read-out: EC50 (μM), antifouling activity): 1.86 µM; Antifouling activity (in words) ([3]; settlement of cypris larvae): much less potent than dolastatin 16; LC50 at 48 h [4]: > 10 µg/mL

**Q.** Which EC50 [3, 8] does the source give for `CC(C)[C@@H](NC(=O)[C@@H]1CCCN1C(=O)[C@@H](NC(=O)OC(C)(C)C)[C@H](C)Cc1ccccc1)[C@@H](C)C(=O)OCc1ccccc1` [Boc-3] here?
**A.** < 1 µg/mL

**Q.** And the EC50 [3, 9]?
**A.** 1.3 µM

**Q.** And the LC50 [4]?
**A.** > 10 µg/mL

**Q.** For `CC(C)[C@@H](NC(=O)[C@@H]1CCCN1C(=O)[C@@H](N)[C@H](C)Cc1ccccc1)[C@@H](C)C(=O)OCc1ccccc1` [Compound 3], which “EC50 (50% effective concentration), antifouling activity” value [1] is on record?
**A.** 1.17 µg/mL (≈ 2.3 µM)

**Q.** What about the EC50 [1] of the same molecule?
**A.** 1.92 µM

**Q.** What about the “LC50 (50% lethal concentration)” value [2] of the same molecule?
**A.** >10 µg/mL

**Q.** For `CC(C)[C@H](OC(=O)[C@@H]1CCCN1C(=O)OC(C)(C)C)C(=O)N(C)[C@@H](C(=O)N1CCC[C@H]1COCc1ccccc1)C(C)C` [Compound 29, Boc-Pro-O-Hiv-D-MeVal-Pro-CH2OBn], which EC50 [3, 8] is on record?
**A.** 3.27 µg/mL

**Q.** And the EC50 [3, 9]?
**A.** 6.52 µM

**Q.** And the LC50 [4]?
**A.** > 10 µg/mL

**Q.** With `O=S(=O)([O-])[O-].[Cu+2]` [CuSO4, reference compound] as the molecule, how does the “EC50 (50% effective concentration), antifouling activity” value [1] read?
**A.** 0.10 µg/mL

**Q.** What about the EC50 [1] of the same molecule?
**A.** 0.63 µM

**Q.** What about the “LC50 (50% lethal concentration)” value [2] of the same molecule?
**A.** >10 µg/mL

**Q.** For `CC(C)C1NC(=O)[C@@H]2CCCN2C(=O)C(C(C)Cc2ccccc2)NC(=O)[C@@H]2CCCN2C(=O)[C@@H](C(C)C)N(C)C(=O)[C@@H](C(C)C)OC(=O)[C@@H]2CCCN2C(=O)[C@H](C)OC(=O)C1C` (some centres unmarked) [Compound 1, Dolastatin 16] (cyclo([Lac]P[dHiv][dNMeV]P[X1]P[X2])), which “Growth inhibition of human cancer cell lines” value ([5]; 1 isolated from the natural sample) is on record?
**A.** strong growth inhibitions

**Q.** And the “Anticancer activity of synthetic sample versus isolated compound” value ([5]; synthetic 1)?
**A.** much less potent than the isolated compound

**Q.** And the “EC50 (50% effective concentration)” value [6]?
**A.** 0.003 µg/mL (≈ 0.00341 µM)

**Q.** And the “EC50 (50% effective concentration), antifouling activity” value [1]?
**A.** <0.03 µg/mL

**Q.** And the EC50 [1]?
**A.** < 0.03 µM

**Q.** And the “LC50 (50% lethal concentration)” value [7]?
**A.** 20 µg/mL (≈ 22.8 µM)

**Q.** What about the “LC50 (50% lethal concentration)” value [2] of the same molecule?
**A.** >10 µg/mL

**Q.** With `CC(C)[C@@H](NC(=O)[C@@H]1CCCN1C(=O)[C@@H](NC(=O)OC(C)(C)C)[C@H](C)Cc1ccc(OCc2ccccc2)cc1)[C@@H](C)C(=O)OCc1ccccc1` [Compound 22, Boc-Dpv(OBn)-Pro-Dml-OBn] as the molecule, how does the EC50 [3, 8] read?
**A.** 4.62 µg/mL

**Q.** And the EC50 [3, 9]?
**A.** 6.47 µM

**Q.** And the LC50 [4]?
**A.** > 10 µg/mL

**Q.** Which EC50 [3, 8] does the source give for `CC(C)[C@@H](NC(=O)[C@@H]1CCCN1C(=O)[C@@H](NC(=O)OC(C)(C)C)[C@H](C)Cc1ccc(O)cc1)[C@@H](C)C(=O)OCc1ccccc1` [Compound 21, Boc-Dpv(OH)-Pro-Dml-OBn] here?
**A.** < 1 µg/mL

**Q.** And the EC50 [3, 9]?
**A.** 0.96 µM

**Q.** What about the LC50 [4] of the same molecule?
**A.** > 10 µg/mL
